Assay results from the supplement of paper PMC13207355.

How the values were obtained:
Settings in all cases: exposure time: 72 h
[1] = tested on: E13 (patient-derived glioblastoma stem cells of classical subtype); assay: surviving fraction (nuclei count normalised to DMSO); higher = more cells surviving (less toxic)
[2] = tested on: E21 (patient-derived glioblastoma stem cells of mesenchymal subtype); assay: as above
[3] = tested on: E28 (patient-derived glioblastoma stem cells of classical subtype); assay: as above
[4] = tested on: E31 (patient-derived glioblastoma stem cells of proneural subtype); assay: as above
[5] = tested on: E34 (patient-derived glioblastoma stem cells of proneural subtype); assay: as above
[6] = tested on: E57 (patient-derived glioblastoma stem cells of mesenchymal subtype); assay: as above
[7] = tested on: FT3469 (normal neural stem cell line); assay: as above
[8] = tested on: E13; assay: phenotypic distance (Euclidean, principal components) from DMSO controls (arbitrary units); higher = stronger morphological change
[9] = tested on: E21; assay: as above
[10] = tested on: E28; assay: as above
[11] = tested on: E31; assay: as above
[12] = tested on: E34; assay: as above
[13] = tested on: E57; assay: as above
[14] = tested on: FT3469; assay: as above
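Throughout, for phenotypic distance (Euclidean, principal components) from DMSO controls: cell Painting imaging in 384-well plates, CellProfiler features reduced to at least 20 principal components, Euclidean distance versus same-plate DMSO vehicle wells (0.1% v/v), median over six images per well.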
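Throughout, for surviving fraction (nuclei count normalised to DMSO): nuclei counted by high-content imaging of Hoechst-stained cells in laminin-coated 384-well plates, relative to 0.1% DMSO vehicle wells, with staurosporine as cell-death control.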

CC[n+]1c(/C=C/C=C2/N(C)c3ccccc3C2(C)C)sc2ccccc21
Settings | phenotypic distance | surviving fraction
[1], 4.1 nM | – | 0.616
[1], 12.3 nM | – | 0.567
[1], 37 nM | – | 0.47
[1], 111.1 nM | – | 0.362
[1], 333.3 nM | – | 0.403
[1], 1000 nM | – | 0.361
[1], 3000 nM | – | 0.381
[2], 4.1 nM | – | 0.792
[2], 12.3 nM | – | 0.825
[2], 37 nM | – | 0.652
[2], 111.1 nM | – | 0.54
[2], 333.3 nM | – | 0.471
[2], 1000 nM | – | 0.462
[2], 3000 nM | – | 0.445
[3], 4.1 nM | – | 0.916
[3], 12.3 nM | – | 0.86
[3], 37 nM | – | 0.707
[3], 111.1 nM | – | 0.596
[3], 333.3 nM | – | 0.429
[3], 1000 nM | – | 0.42
[3], 3000 nM | – | 0.307
[4], 4.1 nM | – | 1.03
[4], 12.3 nM | – | 0.703
[4], 37 nM | – | 0.714
[4], 111.1 nM | – | 0.446
[4], 333.3 nM | – | 0.21
[4], 1000 nM | – | 0.229
[4], 3000 nM | – | 0.277
[5], 4.1 nM | – | 0.967
[5], 12.3 nM | – | 0.902
[5], 37 nM | – | 0.834
[5], 111.1 nM | – | 0.572
[5], 333.3 nM | – | 0.552
[5], 1000 nM | – | 0.591
[5], 3000 nM | – | 0.516
[6], 4.1 nM | – | 0.878
[6], 12.3 nM | – | 0.881
[6], 37 nM | – | 0.793
[6], 111.1 nM | – | 0.614
[6], 333.3 nM | – | 0.337
[6], 1000 nM | – | 0.324
[6], 3000 nM | – | 0.294
[7], 4.1 nM | – | 0.855
[7], 12.3 nM | – | 0.668
[7], 37 nM | – | 0.696
[7], 111.1 nM | – | 0.627
[7], 333.3 nM | – | 0.645
[7], 1000 nM | – | 0.622
[7], 3000 nM | – | 0.578
[8], 4.1 nM | 1.39 | –
[8], 12.3 nM | 1.38 | –
[8], 37 nM | 2.78 | –
[8], 111.1 nM | 3.54 | –
[8], 333.3 nM | 3.71 | –
[8], 1000 nM | 3.71 | –
[8], 3000 nM | 3.71 | –
[9], 4.1 nM | 1.08 | –
[9], 12.3 nM | 1.6 | –
[9], 37 nM | 2.31 | –
[9], 111.1 nM | 3.28 | –
[9], 333.3 nM | 3.93 | –
[9], 1000 nM | 3.44 | –
[9], 3000 nM | 2.74 | –
[10], 4.1 nM | 0.748 | –
[10], 12.3 nM | 0.775 | –
[10], 37 nM | 1.34 | –
[10], 111.1 nM | 1.61 | –
[10], 333.3 nM | 3.13 | –
[10], 1000 nM | 2.8 | –
[10], 3000 nM | 5.04 | –
[11], 4.1 nM | 2.01 | –
[11], 12.3 nM | 1.15 | –
[11], 37 nM | 1.51 | –
[11], 111.1 nM | 1.16 | –
[11], 333.3 nM | 3.28 | –
[11], 1000 nM | 4.43 | –
[11], 3000 nM | 3.86 | –
[12], 4.1 nM | 1.1 | –
[12], 12.3 nM | 1.65 | –
[12], 37 nM | 1.13 | –
[12], 111.1 nM | 2.37 | –
[12], 333.3 nM | 2.3 | –
[12], 1000 nM | 2.55 | –
[12], 3000 nM | 3.35 | –
[13], 4.1 nM | 1.08 | –
[13], 12.3 nM | 0.887 | –
[13], 37 nM | 1.53 | –
[13], 111.1 nM | 2.52 | –
[13], 333.3 nM | 6.37 | –
[13], 1000 nM | 5.7 | –
[13], 3000 nM | 7.93 | –
[14], 4.1 nM | 1.31 | –
[14], 12.3 nM | 1.56 | –
[14], 37 nM | 1.69 | –
[14], 111.1 nM | 1.86 | –
[14], 333.3 nM | 1.62 | –
[14], 1000 nM | 3.78 | –
[14], 3000 nM | 3.43 | –
